{"source": "patent US12161650B2", "about": "“Pharmaceutical compositions comprising a ryanodine receptor modulator and uses thereof” (priority 2021, dated 2024)", "key": {"[1]": {"test": "Phase 1 clinical trial, Part II, muscle biopsy: concentration in quadriceps muscle", "assay_type": "in vivo, human (healthy male volunteers)", "settings": "for Kp (total muscle concentration divided by plasma concentration) / Kp: muscle Day 13 / plasma Day 14 at 3 hours post dose, geom. mean (geom. % CV); for Kp: quadriceps muscle / plasma, read-out: Kpu (unbound muscle concentration divided by plasma concentration)", "protocol": "For Study part II (for all groups), Concentrations of Compound I were determined in muscle by performing muscle biopsy on quadriceps muscle on day 13, at least 3 hours after morning dose. Plasma and muscle samples were analyzed by LC-MS/MS method. Muscle biopsy was performed to assess the concentration of Compound I in quadriceps muscle. The biopsy was performed on Day 13 at 3 hours post dose at least. Table 9 summarizes the ratios of unbound respective total concentration at Day 13 at 3 hours post dose divided by the plasma concentration on Day 14 at 3 hours post dose."}, "[2]": {"test": "Phase 1 clinical trial, Part II multiple ascending doses over 14 days, plasma pharmacokinetics", "assay_type": "in vivo, human (healthy male volunteers)", "settings": "for Cmax / Tmax / AUC(0-t) / AUC / half-life: male, human, plasma; for AUC(0-t): read-out: AUC0-24", "protocol": "A Phase 1, randomized, double-blind, placebo-controlled clinical trial was performed to assess the safety and pharmacokinetics (PK) of Compound I after single, escalating, and repeated oral doses in health male volunteers.\n4-[(7-methoxy-2,3-dihydro-1,4-benzothiazepin-4(5H)yl)methyl]benzoic acid hemi-fumarate (Compound I) was administered in a gastro-resistant tablet according to Example 1. The formulation contained 20 mg, 40 mg, or 200 mg Compound I (based on the mass of 4-[(7-methoxy-2,3-dihydro-1,4-benzothiazepin-4(5H)yl)methyl]benzoic acid). Placebo tablet according to Example 4 was used as comparator.\nIn Part II, participants from groups I, J, K, and L received repeated doses of 20 mg, 60 mg, 120 mg, or 240 mg Compound I, respectively, or corresponding placebo once daily over a period of 14 days. Forty-one subjects completed Part II: 7/7/8/7 for cohorts I, J, K, L, and twelve placebo.\nIn Part II, blood samples were collected from each participant as follows: Day 1: 12 samples from the pre-morning dose up to 16 h (pre-dose, 0.25, 0.5, 1, 1.5, 2, 3, 4, 6, 8, 12, and 16 h), Days 2-13: 12 samples at pre-doses (i.e., morning dose); Day 14: 16 samples from the pre-morning dose up to 96 (D14 pre-dose, 0.25, 0.5, 1, 1.5, 2, 3, 4, 6, 8, 12, and 16 h and D15-18: 1 sample before theoretical morning dosing.\nThe area under the plasma concentration-time curve was calculated using a combined linear and logarithmic trapezoidal rule. The interpolation was linear in the constant and ascending parts of the plasma concentration-time profiles. The interpolation was logarithmic in the descending parts.\nFor Part II, the same approach was used on AUCτ (Day 14) respectively AUC24 (Day 1), and Cmax.\nFor each group and treatment, descriptive statistics (N, arithmetic mean, standard deviation, minimum, median, maximum, coefficient of variation, geometric mean, and geometric CV, as appropriate) were calculated for the concentrations and pharmacokinetic parameters of Compound I.\nPlasma and muscle samples were analyzed by LC-MS/MS method."}, "[3]": {"settings": "geometric means across dose groups 20-240 mg, 14-day repeated administration"}}, "note": "Like-named read-outs stand apart in the source and are kept apart here."}
{"smiles": "COc1ccc2c(c1)CN(Cc1ccc(C(=O)O)cc1)CCS2.O=C(O)/C=C/C(=O)O", "note": "[Compound I, 4-[(7-methoxy-2,3-dihydro-1,4-benzothiazepin-4(5H)yl)methyl]benzoic acid hemifumarate]", "values": [{"measurement": "Kp (total muscle concentration divided by plasma concentration)", "setting": "[1]; 20 mg once daily", "result": "0.0808 (65.3) (ng/g)/(ng/ml)"}, {"measurement": "Kp (total muscle concentration divided by plasma concentration)", "setting": "[1]; 60 mg once daily", "result": "0.0640 (22.6) (ng/g)/(ng/ml)"}, {"measurement": "Kp (total muscle concentration divided by plasma concentration)", "setting": "[1]; 120 mg once daily", "result": "0.0636 (49.9) (ng/g)/(ng/ml)"}, {"measurement": "Kp (total muscle concentration divided by plasma concentration)", "setting": "[1]; 240 mg once daily", "result": "0.0440 (30.0) (ng/g)/(ng/ml)"}, {"measurement": "Dose proportionality of median unbound and total concentrations in quadriceps muscle", "setting": "[1]; 20-240 mg once daily", "result": "appeared dose proportional"}, {"measurement": "Kp, range of geometric mean ratios across doses", "setting": "[1]; dose range 20-240 mg", "result": "0.04-0.08 (ng/g)/(ng/mL)"}, {"measurement": "Kp at 3 h", "setting": "[1]; male, human, quadriceps muscle (unbound) / plasma, oral, dose range 20-240 mg, read-out: Kpu, range of geometric mean ratios across doses", "result": "0.0081 to 0.0106"}, {"measurement": "Kp", "setting": "[1]; male, human, oral, 20 mg once daily", "result": 0.0106}, {"measurement": "Kp", "setting": "[1]; male, human, oral, 60 mg once daily", "result": 0.01}, {"measurement": "Kp", "setting": "[1]; male, human, oral, 120 mg once daily", "result": 0.0081}, {"measurement": "Kp", "setting": "[1]; male, human, oral, 240 mg once daily", "result": 0.0081}, {"measurement": "Day at which steady-state was attained", "setting": "[2]; 240 mg cohort", "result": 5, "unit": "days"}, {"measurement": "Day at which steady-state was attained", "setting": "[2]; 20, 60, and 120 mg cohorts", "result": 4, "unit": "days"}, {"measurement": "Time to steady-state", "setting": "[2]; daily treatment, across cohorts", "result": "3 to 7", "unit": "days"}, {"measurement": "Accumulation ratio based on AUC", "setting": "[2]; [3]", "result": "1.4-1.8"}, {"measurement": "Accumulation ratio based on Cmax", "setting": "[2]; [3]", "result": "1.4-1.8"}, {"measurement": "Cmax", "setting": "[2]; oral, 20 mg, 20 mg once daily, Day 1, geom. mean (geom. % CV), n = 8", "result": 2200, "unit": "ng/mL"}, {"measurement": "Tmax", "setting": "[2]; oral, 20 mg, 20 mg once daily, Day 1, median (range), n = 8, read-out: tmax", "result": 2.52, "unit": "h"}, {"measurement": "Cmax", "setting": "[2]; oral, 20 mg, 20 mg once daily, Day 14, geom. mean", "result": 3110, "unit": "ng/mL"}, {"measurement": "Tmax", "setting": "[2]; oral, 20 mg, 20 mg once daily, Day 14, median, read-out: tmax", "result": 3, "unit": "h"}, {"measurement": "Cmax", "setting": "[2]; oral, 60 mg, 60 mg once daily, Day 1, geom. mean", "result": 6090, "unit": "ng/mL"}, {"measurement": "Tmax", "setting": "[2]; oral, 60 mg, 60 mg once daily, Day 1, median, read-out: tmax", "result": 3, "unit": "h"}, {"measurement": "Cmax", "setting": "[2]; oral, 60 mg, 60 mg once daily, Day 14, geom. mean", "result": 8840, "unit": "ng/mL"}, {"measurement": "Tmax", "setting": "[2]; oral, 60 mg, 60 mg once daily, Day 14, median, read-out: tmax", "result": 1.45, "unit": "h"}, {"measurement": "Cmax", "setting": "[2]; oral, 120 mg, 120 mg once daily, Day 1, geom. mean", "result": 11500, "unit": "ng/mL"}, {"measurement": "Tmax", "setting": "[2]; oral, 120 mg, 120 mg once daily, Day 1, median, read-out: tmax", "result": 3, "unit": "h"}, {"measurement": "Cmax", "setting": "[2]; oral, 120 mg, 120 mg once daily, Day 14, geom. mean", "result": 16300, "unit": "ng/mL"}, {"measurement": "Tmax", "setting": "[2]; oral, 120 mg, 120 mg once daily, Day 14, median, read-out: tmax", "result": 3.5, "unit": "h"}, {"measurement": "Cmax", "setting": "[2]; oral, 240 mg, 240 mg once daily, Day 1, geom. mean", "result": 23900, "unit": "ng/mL"}, {"measurement": "Tmax", "setting": "[2]; oral, 240 mg, 240 mg once daily, Day 1, median, read-out: tmax", "result": 3, "unit": "h"}, {"measurement": "Cmax", "setting": "[2]; oral, 240 mg, 240 mg once daily, Day 14, geom. mean", "result": 34900, "unit": "ng/mL"}, {"measurement": "Tmax", "setting": "[2]; oral, 240 mg, 240 mg once daily, Day 14, median, read-out: tmax", "result": 3, "unit": "h"}, {"measurement": "AUC(0-t)", "setting": "[2]; oral, 20 mg once daily (Treatment I), Day 1, geom. mean, n = 7", "result": 24.3, "unit": "µg·h/mL"}, {"measurement": "AUC", "setting": "[2]; oral, 20 mg once daily, Day 14, geom. mean", "result": 40.1, "unit": "µg·h/mL"}, {"measurement": "half-life", "setting": "[2]; oral, 20 mg once daily, Day 14, geom. mean, read-out: t1/2, z (converted)", "result": 19.3, "unit": "h"}, {"measurement": "AUC(0-t)", "setting": "[2]; oral, 60 mg once daily (Treatment J, n = 7), Day 1, geom. mean", "result": 69.2, "unit": "µg·h/mL"}, {"measurement": "AUC", "setting": "[2]; oral, 60 mg once daily, Day 14, geom. mean", "result": 115, "unit": "µg·h/mL"}, {"measurement": "half-life", "setting": "[2]; oral, 60 mg once daily, Day 14, geom. mean, read-out: t1/2, z (converted)", "result": 19.7, "unit": "h"}, {"measurement": "AUC(0-t)", "setting": "[2]; oral, 120 mg once daily (Treatment K, n = 8), Day 1, geom. mean", "result": 138, "unit": "µg·h/mL"}, {"measurement": "AUC", "setting": "[2]; oral, 120 mg once daily, Day 14, geom. mean", "result": 221, "unit": "µg·h/mL"}, {"measurement": "half-life", "setting": "[2]; oral, 120 mg once daily, Day 14, geom. mean, read-out: t1/2, z (converted)", "result": 19.3, "unit": "h"}, {"measurement": "AUC(0-t)", "setting": "[2]; oral, 240 mg once daily (Treatment L, n = 7), Day 1, geom. mean", "result": 270, "unit": "µg·h/mL"}, {"measurement": "AUC", "setting": "[2]; oral, 240 mg once daily, Day 14, geom. mean", "result": 465, "unit": "µg·h/mL"}, {"measurement": "half-life", "setting": "[2]; oral, 240 mg once daily, Day 14, geom. mean, read-out: t1/2, z (converted)", "result": 19.8, "unit": "h"}, {"measurement": "half-life", "setting": "[2]; oral, based on the results of the single and repeat dose studies, read-out: Mean apparent terminal half-life (converted)", "result": "~20", "unit": "h"}, {"measurement": "Tmax", "setting": "[2]; po, after 14-days of repeated once daily oral administrations, across cohorts, read-out: median Tmax", "result": "3 to 4", "unit": "h"}, {"measurement": "Dose proportionality regarding AUCτ resp. AUC0-24 and Cmax", "setting": "[2]; repeated doses, graphical inspections", "result": "dose proportionality"}, {"measurement": "Non-linearity with the time and dose", "setting": "[2]; repeated oral administrations at 20, 60, 120, and 240 mg/d", "result": "No evidence of non-linearity with the time and dose was observed"}]}
